From article PMC3966265, “Phosphorylation of Arabidopsis transketolase at Ser^428 provides a potential paradigm for the metabolic control of chloroplast carbon metabolism” (Biochemical Journal, 2014)

Experiments:
Assay type in all cases: biochemical
AtTKL1 [1] = biological target: T1, AtTKL1 (Arabidopsis thaliana, UniProt Q8RWV0, S428D); assay: coupled NAD reduction assay with E. coli E4PDH, A340; details: phosphomimetic mutant; 2 mM G3P; 0.1 mM TPP; 15 mM MgCl2; 5 mM CaCl2; pH 7.2 and 8.0; 30 °C
T1 construct: gene TKL-1; mature form lacking N-terminal 67 residues (chloroplast-targeting peptide); N-terminal intein tag cleaved; E. coli ER2566; 73 kDa; homodimer

AtTKL1 [2] = biological target: T2, AtTKL1 (Arabidopsis thaliana, UniProt Q8RWV0); assay: as above; details: 2 mM G3P; 0.1 mM TPP; 15 mM MgCl2; 5 mM CaCl2; pH 7.2 and 8.0; 30 °C
T2 construct: gene TKL-1; mature form lacking N-terminal 67 residues (chloroplast-targeting peptide); N-terminal intein tag cleaved; E. coli ER2566; 73 kDa; homodimer
T2 sequence (Q8RWV0 68-741): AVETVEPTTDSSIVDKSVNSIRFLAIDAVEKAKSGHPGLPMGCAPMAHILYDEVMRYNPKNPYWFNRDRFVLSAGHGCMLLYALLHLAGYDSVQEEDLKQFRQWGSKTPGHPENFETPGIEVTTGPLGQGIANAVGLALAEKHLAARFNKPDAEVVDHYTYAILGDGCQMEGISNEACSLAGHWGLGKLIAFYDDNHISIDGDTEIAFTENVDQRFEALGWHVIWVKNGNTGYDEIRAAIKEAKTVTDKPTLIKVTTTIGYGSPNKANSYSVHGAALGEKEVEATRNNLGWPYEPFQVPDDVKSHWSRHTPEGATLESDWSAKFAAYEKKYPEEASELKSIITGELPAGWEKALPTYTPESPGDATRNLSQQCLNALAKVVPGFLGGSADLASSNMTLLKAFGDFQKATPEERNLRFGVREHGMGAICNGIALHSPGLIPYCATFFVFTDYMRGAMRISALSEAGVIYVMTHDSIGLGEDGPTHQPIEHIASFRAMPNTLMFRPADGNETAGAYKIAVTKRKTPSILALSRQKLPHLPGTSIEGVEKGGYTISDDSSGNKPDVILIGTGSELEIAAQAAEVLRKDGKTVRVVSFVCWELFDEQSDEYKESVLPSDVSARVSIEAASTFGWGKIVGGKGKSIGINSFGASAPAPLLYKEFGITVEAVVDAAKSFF

cpCKII = biological target: T3, cpCKII (Arabidopsis thaliana, UniProt O64816); assay: […] phosphorylation of recombinant AtTKL1, SDS/PAGE autoradiogram; details: labelled compound; 10 mM MgCl2; pH 7.6; 22 °C; with calcium or EGTA
T3 construct: gene CKA4; mature form lacking N-terminal 85 residues; N-terminal GST fusion (pGEX4-T1) kept; E. coli
T3 sequence (O64816 86-432): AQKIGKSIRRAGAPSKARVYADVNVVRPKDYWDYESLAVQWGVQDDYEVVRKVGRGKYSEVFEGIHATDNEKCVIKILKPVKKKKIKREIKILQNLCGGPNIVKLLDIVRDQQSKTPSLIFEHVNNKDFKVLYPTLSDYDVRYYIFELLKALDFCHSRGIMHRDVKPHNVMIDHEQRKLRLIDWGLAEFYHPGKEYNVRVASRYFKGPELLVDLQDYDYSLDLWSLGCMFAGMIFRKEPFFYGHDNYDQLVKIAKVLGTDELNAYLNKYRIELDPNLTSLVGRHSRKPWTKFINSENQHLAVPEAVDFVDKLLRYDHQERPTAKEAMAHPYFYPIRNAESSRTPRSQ

T1 sequence (Q8RWV0 68-741 S428D): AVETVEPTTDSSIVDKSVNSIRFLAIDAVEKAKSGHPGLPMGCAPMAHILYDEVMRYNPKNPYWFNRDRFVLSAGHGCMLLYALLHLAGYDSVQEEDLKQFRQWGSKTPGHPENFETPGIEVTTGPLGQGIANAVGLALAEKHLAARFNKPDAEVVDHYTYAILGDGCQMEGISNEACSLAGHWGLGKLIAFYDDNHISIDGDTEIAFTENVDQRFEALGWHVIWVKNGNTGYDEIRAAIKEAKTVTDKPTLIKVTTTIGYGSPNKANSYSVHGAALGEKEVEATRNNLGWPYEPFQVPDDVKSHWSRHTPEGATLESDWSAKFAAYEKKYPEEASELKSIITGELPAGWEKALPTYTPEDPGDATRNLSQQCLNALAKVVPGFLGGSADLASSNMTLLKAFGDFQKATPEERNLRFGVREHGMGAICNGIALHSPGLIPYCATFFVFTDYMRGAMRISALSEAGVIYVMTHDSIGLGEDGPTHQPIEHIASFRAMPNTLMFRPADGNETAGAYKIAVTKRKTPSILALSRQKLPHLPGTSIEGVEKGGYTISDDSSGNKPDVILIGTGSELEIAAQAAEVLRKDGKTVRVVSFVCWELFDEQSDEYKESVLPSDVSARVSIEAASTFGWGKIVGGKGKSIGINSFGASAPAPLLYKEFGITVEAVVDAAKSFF

Row | SMILES | KmF6P (AtTKL1 [1]) | KmF6P (AtTKL1 [2]) | 32P phosphorylation of recombinant AtTKL1, SDS/PAGE autoradiogram (cpCKII)
1 | O=P(O)(O)OC[C@H]1OC(O)(CO)[C@@H](O)[C@@H]1O (stereo partly shown) [F6P] | higher KmF6P and VmaxF6P values compared with the phosphomimetic mutant | the wild-type enzyme had higher KmF6P and VmaxF6P values | –
2 | Nc1ncnc2c1ncn2[C@@H]1O[C@H](COP(=O)(O)OP(=O)(O)OP(=O)(O)O)[C@@H](O)[C@H]1O [ATP] | – | – | cpCKII was able to phosphorylate recombinant AtTKL1 (Figure 2F, arrowheads)
3 | Nc1nc2c(ncn2[C@@H]2O[C@H](COP(=O)(O)OP(=O)(O)OP(=O)(O)O)[C@@H](O)[C@H]2O)c(=O)[nH]1 [GTP] | – | – | recombinant cpCKII was able to utilize GTP
